Laboratory results from US10603298B2, “Succinate dehydrogenase inhibitors (SDHi's)” (Medical Research Council, priority 2014, dated 2020).
“Also recorded” adds a separate entry of the source.

Key:
[1] = system: mouse heart IR injury (myocardial infarction); assay: In vivo mouse cardiac IR injury (LAD ligation), infarct size by triphenyltetrazolium chloride staining; settings: dimethyl succinate 8 mg/kg/min infused in combination with dimethyl malonate
Description: For the in vivo heart IR model an open-chest, in situ heart model was used^31,32. Male mice (8-10 weeks; Charles River Laboratories, UK) were anaesthetised with sodium pentobarbital (70 mg/kg intraperitoneally (i.p.)), intubated endotracheally and ventilated with 3 cm H2O positive-end expiratory pressure. Adequacy of anaesthesia was monitored using corneal and withdrawal reflexes. Ventilation frequency was kept at 110 breaths per minute with tidal volume between 125-150 μL. A thoracotomy was performed and the heart exposed by stripping the pericardium. A prominent branch of the left anterior descending coronary artery (LAD) was surrounded by a 7-0 Prolene suture that was then passed through a small plastic tube. Ischaemia was induced by tightening the tubing against the heart surface. To assess metabolites during IR in vivo, mice were divided into three groups: 30 min ischaemia, 30 min ischaemia plus 5 min reperfusion and 30 min sham-operation in which the suture was placed but the LAD was not occluded. At the end of each protocol tissue was removed from the at risk and peripheral areas of the heart, selected visually by comparing white versus red tissue, and snap-frozen in liquid nitrogen. […] Infarct size was assessed after 30 min of ischaemia followed by 120 min reperfusion using 2% triphenyltetrazolium chloride staining and is expressed as a percentage of the risk zone^33. […]

[2] = system: adult primary rat cardiomyocytes; assay: ROS production (DHE oxidation) in adult primary cardiomyocytes during in situ IR; type: cell-based; settings: 40 min ischaemia then reoxygenation, 4 mM in ischaemic buffer
Description: FIG. 13: Tracking cardiomyocytes ROS levels in primary cardiomyocytes during in situ IR. Primary rat cardiomyocytes were subjected to 40 min ischaemia and reoxygenation with ROS levels tracked throughout the experiment by ratiometric measurement of dihydroethidium (DHE) oxidation. […] Representative traces of each condition are shown. The highlighted window indicates the period of the experiment expanded in detail in FIG. 3.a.
(§1) Male Sprague-Dawley rats (300-370 g) were terminally anaesthetised via IP injections of 200 mg/kg sodium pentobarbitone and 330 U/kg heparin. Hearts were excised and retrograde perfused on a Langendorff-perfusion system with 13 mL/min oxygenated KH buffer at 37° C. Cells were isolated by collagenase digestion using standard methods^41. […]
(§2) Cells were imaged within 36 hours of plating. […] Simulated ischaemia was achieved by replacing the buffer with a pre-gassed, hypoxic recording buffer simulating ischaemia (as above but lacking glucose and containing 10 mM sodium lactate, 14.8 mM KCl; pH 6.4) and by covering the heated stage with a transparent, gas-impermeant lid, forming a small chamber into which argon was forced to maintain hypoxia. pO2 was routinely measured as <2.0 mm Hg during simulated ischaemia. […]
(§3) ROS production was estimated by oxidation of DHE. […] All measured cell parameters were analysed with Fiji image processing software.

[3] = system: adult primary rat cardiomyocytes; assay: NAD(P)H autofluorescence in primary cardiomyocytes during in situ IR; type: cell-based; settings: 4 mM in ischaemic buffer
Description: FIG. 14: Tracking NADH reduction state in primary cardiomyocytes during in situ IR. Primary rat cardiomyocytes were subjected to 40 min ischaemia and reoxygenation and NADH reduction state was tracked throughout the experiment by measurement of NAD(P)H autofluorescence. […] Representative traces of each condition are shown. The highlighted window indicates the period of the experiment expanded in detail in FIG. 3c.
as §1, §2, §3

C2C12 myoblasts = assay: Succinate-dependent mitochondrial superoxide production (MitoSOX) in myoblasts; type: cell-based, mouse; settings: C2C12 cells, normoxic, mitochondria hyperpolarised with oligomycin
Description: C2C12 myoblasts were seeded in 35 mm glass bottom culture dishes (MatTek) and incubated for 24 h in low glucose (1 g/L) DMEM. 2 h prior to imaging DMEM was removed, and replaced with imaging buffer (132 mM NaCl; […]; 4.2 mM KCl; 1 mM MgCl2 1 mM CaCl2 adjusted to pH 7.4 with Tris base and supplemented with 2-deoxyglucose (25 μM), and sodium pyruvate (10 mg/L or 4 μM oligomycin as indicated). Myoblasts were pre-incubated with 2 μM MitoSOX for 15 min prior to imaging. MitoSOX fluorescence was monitored using a Nikon Eclipse Ti confocal microscope at 37° C. on a temperature controlled stage for 30 min. MitoSOX was excited at 510 nm and the emitted signal collected with a LP 560 filter following the indicated additions.

COC(=O)CCC(=O)OC [dimethyl succinate]
cardioprotection by dimethyl malonate after adding back dimethyl succinate [1]: cardioprotection was suppressed
ROS production / DHE oxidation upon reperfusion [2]: significantly increased mitochondrial ROS production during reperfusion; also recorded: amplified reperfusion DHE oxidation
NAD(P)H oxidation at reperfusion [3]: suppressed
MitoSOX oxidation (C2C12 myoblasts): increased MitoSOX oxidation
